Read-outs that look alike come from different tables or passages of the source.
How the values were obtained:
[1] = Body weight gain in diet-induced-obesity (DIO) mice; assay type: in vivo, C57BL/6 mice
[2] = Body composition in DIO mice; assay type: in vivo, C57BL/6J mice; details: DIO mice
Description: During the study, the mice can continue to eat their high-fat diet. Water can be provided ad libitum throughout the study.
DIO mice can be implanted with subcutaneous (SC) intrascapular osmotic pumps to deliver either vehicle (50% dimethylsulfoxide (DMSO) in water) or a compound of the invention. […] Body weights and food intake can be measured over regular intervals throughout the study periods. Respiratory quotient (RQ, defined as CO2 production÷O2 consumption) and metabolic rate can be determined using whole-animal indirect calorimetry (Oxymax, Columbus Instruments, Columbus, Ohio). The mice can be euthanized by isoflurane overdose, and an index of adiposity (bilateral epididymal fat pad weight) measured. Moreover, prior to determination of epididymal weight, body composition (lean mass, fat mass) for each mouse can be analyzed using a Dual Energy X-ray Absorptiometry (DEXA) instrument per manufacturer's instructions (Lunar Piximus, GE Imaging System).

[3] = assay type: in vivo, NIH/Swiss mice
Protocol: (§1) In FIG. 3A, bars represent mean±sd, n=6-10. […] Gavage (1.5 g/kg) was given at t=0, Sample was taken at t=30 min. […] In FIG. 3B, points represent mean±sem, n=8-15.
Peptide was injected IP at t=−5 minutes into 4-hour fasted NIH/Swiss female mice. […] In FIG. 17 points represent mean+/−sem. […] Samples were taken at t=60, t=120 and t=180.

[4] = assay type: in vivo, NIH/Swiss mice; remark: listed apart in the source
Protocol: as §1
Points represent mean±sem.

[5] = assay type: in vivo, db/db mice; details: db/db mice, IP
Protocol: Peptide was injected IP at t=0 immediately following baseline sample into 2-hour fasted db/db mice.

[6] = Intravenous glucose tolerance test (IVGTT), i.v. infusion; assay type: in vivo, rat; details: 100 pmol/kg/min infusion, rats
Protocol: In the typical IVGTT assays the test sample was administered by IV infusion. The IV infusion of sample was initiated at t=−30 min and continued through t=90. IV glucose was given at t=0. To determine a duration of action using the IVGTT assay, the sample was injected SC as a single injection at one time point indicated (e.g., t=−240, −120, −60 or −30) prior to administration of glucose. IV glucose was given at t=0.
As described, fed, isoflurane anesthetized HSD male rats were intubated and cannulated via femoral artery and vein and allowed to stabilize for 1 hour. […] At t=0, an i.v. bolus of 5.7 mmol/kg D-glucose was administered over 2 minutes. Samples for glucose measurement and insulin concentrations were taken at various time points before and after (0 to 90 minutes) glucose infusion.

[7] = biological target: cardiomyocyte Gs-coupled receptors; assay: cAMP production in neonatal cardiomyocytes (HTRF, Gs-coupled receptor activation); assay type: cell-based, rat; details: neonatal rat cardiomyocytes
Protocol: Activation of cardiomyocyte Gs- and Gi-coupled receptors was determined as a measure of cAMP production.
Neonatal cardiomyocytes were isolated using a commercially available system. […] Sprague Dawley neonatal rats (1-2 days old) were decapitated and the beating heart dissected out into digestion buffer (Cellutron D1 buffer) to dissociate cells. […] The resuspended cells incubated in buffer (Cellutron D3 buffer) for sufficient time to allow optimal dispersion and minimize the need for pipetting to break up clumps. Cells released from the first 2 digestions were discarded since a significant portion of these is red blood cells. Resuspended cells were filtered and allowed to pre-plate for 1 hour on plastic in an incubator in NS media (Cellutron, N.J.) in order to remove fibroblasts. After 1 hour of pre-plating, floating cells are removed and the flask rinsed with NS media. The floating cells and the cells in the rinse media were combined and counted. Residual red blood cells, which are smaller that the cardiac myocytes, were not counted.
At Day 1, the NS media was replaced with fresh NS media.
Dose response was determined.
For Gs assays the positive control was 10 uM forskolin and negative control was buffer. For Gi assays the positive control was buffer and the negative control was 10 uM forskolin.

[8] = Gastric emptying (FIG. 23A); details: in vivo
[9] = Intracellular calcium levels (FIG. 23B)
[10] = Glucose in rats (summary table); assay type: in vivo, rat
[11] = conscious rats, 100 μg; cited from earlier work
[12] = Telemetry of circulatory effects in conscious rats; details: 80 nmol/kg intravenous
human GIP receptor = assay: biochemical; assay type: binding; details: read-out: GIP RBA
[13] = 30, 60 90 μg, men with IDDM; cited from earlier work

## YAEGTFISDYSIAMDKIHQQDFVNWLLAQKGKKNDWKHNITQ-OH [GIP, reference compound]
[1]; DIO mice
  BWt (mDIO): not active
[1]; mouse, in vivo
  weight loss / body weight change in diet-induced-obese mice: did not cause weight loss
[2]
  Body Comp (mDIO): No effect on lean mass
[3]; mice, effect on glucose
  OGTT: decreases
[3]; mouse, in vivo
  OGTT response: −10%
[4]; mice
  Glucose mice: weak
[4]; mouse, in vivo
  basal glucose lowering (% maximal decrease): 0%
[5]
  glucose lowering in a diabetic mouse model (FIG. 4): modest and wanes over time
[6]
  insulin levels prior to the glucose challenge: significant rise in insulin levels
  insulinotropic response to an intravenous glucose challenge (IVGTT assay): significant enhancement of the insulinotropic response
[7]; 30 minutes, read-out: EC50 of cAMP production (this experiment, FIGS. 18A/18B)
  EC50: 9.1 nM
[7]; read-out: EC50 of cardiomyocyte Gs-coupled receptor activation (three independent experiments)
  EC50: 15.6 nM
[8]
  Gastric Emptying: not active
[9]
  iCa: not active
[10]
  Glucose rats: not active
mice, peptide injected IP
  food intake: not active
mouse, in vivo, ip
  food intake: did not acutely inhibit food intake
[11]
  inhibition of gastric emptying at doses of 100 μg: either weakly active or inactive
[12]
  dP/dt: increased dP/dt similarly
  effect on mean arterial pressure: had no effect

## CC[C@H](C)[C@H](NC(=O)[C@H](CO)NC(=O)[C@H](Cc1ccc(O)cc1)NC(=O)[C@H](CC(=O)O)NC(=O)[C@H](CO)NC(=O)[C@@H](NC(=O)[C@H](Cc1ccccc1)NC(=O)[C@@H](NC(=O)CNC(=O)[C@H](CCC(=O)O)NC(=O)[C@@H](C)NC(=O)[C@@H](N)Cc1ccc(O)cc1)[C@@H](C)O)[C@@H](C)CC)C(=O)N[C@@H](C)C(=O)N[C@@H](CCSC)C(=O)N[C@@H](CC(=O)O)C(=O)N[C@@H](CCCCN)C(=O)N[C@H](C(=O)N[C@@H](Cc1c[nH]cn1)C(=O)N[C@@H](CCC(N)=O)C(=O)N[C@@H](CCC(N)=O)C(=O)N[C@@H](CC(=O)O)C(=O)N[C@@H](Cc1ccccc1)C(=O)N[C@H](C(=O)N[C@@H](CC(N)=O)C(=O)N[C@@H](Cc1c[nH]c2ccccc12)C(=O)N[C@@H](CC(C)C)C(=O)N[C@@H](CC(C)C)C(=O)N[C@@H](C)C(=O)N[C@@H](CCC(N)=O)C(=O)N[C@@H](CCCCN)C(=O)N[C@@H](CO)C(=O)NCC(=O)N[C@@H](C)C(=O)N1CCC[C@H]1C(=O)N1CCC[C@H]1C(=O)N1CCC[C@H]1C(=O)N[C@@H](CO)C(N)=O)C(C)C)[C@@H](C)CC [0601GIP4192]
Human GIP receptor
  IC50: 7 nM
[3]; 350 nmol/kg
  OGTT/GL (%): −16%

## CC[C@H](C)[C@H](NC(=O)[C@@H]1CCCN1C(=O)CNC(=O)[C@H](Cc1ccccc1)NC(=O)[C@H](CC(N)=O)NC(=O)[C@H](CC(N)=O)NC(=O)[C@H](CO)NC(=O)[C@H](CO)NC(=O)[C@H](Cc1c[nH]cn1)NC(=O)[C@@H](NC(=O)[C@H](CC(C)C)NC(=O)[C@H](Cc1ccccc1)NC(=O)[C@H](CC(N)=O)NC(=O)[C@H](C)NC(=O)[C@H](CC(C)C)NC(=O)[C@H](CCCNC(=N)N)NC(=O)[C@H](CCC(N)=O)NC(=O)[C@@H](NC(=O)[C@H](C)NC(=O)[C@@H]1CSSC[C@H](NC(=O)[C@@H](N)CCCCN)C(=O)N[C@@H](CC(N)=O)C(=O)N[C@@H]([C@@H](C)O)C(=O)N[C@@H](C)C(=O)N[C@@H]([C@@H](C)O)C(=O)N1)[C@@H](C)O)C(C)C)C(=O)N[C@@H](CC(C)C)C(=O)N1CCC[C@H]1C(=O)N1CCC[C@H]1C(=O)N[C@H](C(=O)N[C@@H](CC(N)=O)C(=O)N[C@H](C(=O)NCC(=O)N[C@@H](CO)C(=O)N[C@@H](CC(N)=O)C(=O)N[C@H](C(=O)N[C@@H](Cc1ccc(O)cc1)C(N)=O)[C@@H](C)O)C(C)C)[C@@H](C)O [pramlintide, ^25,28,29Pro-h-amylin]
[13]
  half-emptying time of the stomach: approximately doubled the half-emptying time of the stomach
